Reference: publication PMC10850145, “Hormonal steroids induce multidrug resistance and stress response genes in Neisseria gonorrhoeae by binding to MtrR” (Nature Communications, 2024)
Several values for one entry are separate records, joined by “and”; a condition that tells them apart may be missing. Equal entries are not always repeated. Where two headings read alike, the source gives them in different places.

Tested on: mtrC-lacZ expression
Type: cell-based, Neisseria gonorrhoeae
Conditions: for mtrC-lacZ β-galactosidase activity, Mean: left block of sheet (mtrCDE); for β-galactosidase activity, Mean: second (right) untitled block of sheet Figure S10 (mtrC)
[1] = strain ΔmtrR + mtrR R176E, 6.25 µM hormone
[2] = strain ΔmtrR + mtrR R176E, 12.5 µM hormone
[3] = strain ΔmtrR + mtrR R176E, 25 µM hormone
[4] = strain ΔmtrR + mtrR R176E, 50 µM hormone
[5] = strain ΔmtrR + mtrR WT, 6.25 µM hormone
[6] = strain ΔmtrR + mtrR WT, 12.5 µM hormone
[7] = strain ΔmtrR + mtrR WT, 25 µM hormone
[8] = strain ΔmtrR + mtrR WT, 50 µM hormone

CC(=O)[C@H]1CC[C@H]2[C@@H]3CCC4=CC(=O)CC[C@]4(C)[C@H]3CC[C@]12C [Progesterone, progesterone]
β-galactosidase activity, single replicate (second block of sheet (c39-c76), ΔmtrR + mtrR R176E in trans, 50 µM): 130 Miller units and 108 Miller units and 88 Miller units and 66 Miller units | β-galactosidase activity, mtrC-lacZ, Mean (strain WT (FA19/pLES94-mtrC), hormone 6.25 µM): 97 Miller units | β-galactosidase activity, mtrC-lacZ, Mean (strain WT (FA19/pLES94-mtrC), hormone 12.5 µM): 126 Miller units | β-galactosidase activity, mtrC-lacZ, Mean (strain WT (FA19/pLES94-mtrC), hormone 25 µM): 146 Miller units | β-galactosidase activity, mtrC-lacZ, Mean (strain WT (FA19/pLES94-mtrC), hormone 50 µM): 139 Miller units | mtrC-lacZ β-galactosidase activity, Mean (strain WT, 6.25 µM hormone): 108 Miller units | β-galactosidase activity, Mean (strain WT, 6.25 µM hormone): 36 Miller units | mtrC-lacZ β-galactosidase activity, Mean (strain WT, 12.5 µM hormone): 144 Miller units | β-galactosidase activity, Mean (strain WT, 12.5 µM hormone): 47 Miller units | mtrC-lacZ β-galactosidase activity, Mean (strain WT, 25 µM hormone): 194 Miller units | β-galactosidase activity, Mean (strain WT, 25 µM hormone): 70 Miller units | mtrC-lacZ β-galactosidase activity, Mean (strain WT, 50 µM hormone): 222 Miller units | β-galactosidase activity, Mean (strain WT, 50 µM hormone): 97 Miller units | activation of mtrC (strain producing MtrR R176E): almost no activation | β-galactosidase activity, mtrC-lacZ, Mean (strain ΔmtrR (FA19 ∆mtrR/pLES94-mtrC), hormone 6.25 µM): 210 Miller units | β-galactosidase activity, mtrC-lacZ, Mean (strain ΔmtrR (FA19 ∆mtrR/pLES94-mtrC), hormone 12.5 µM): 191 Miller units | β-galactosidase activity, mtrC-lacZ, Mean (strain ΔmtrR (FA19 ∆mtrR/pLES94-mtrC), hormone 25 µM): 234 Miller units | β-galactosidase activity, mtrC-lacZ, Mean (strain ΔmtrR (FA19 ∆mtrR/pLES94-mtrC), hormone 50 µM): 188 Miller units | β-galactosidase activity, mtrC-lacZ, Mean (strain ΔmtrR + mtrR D171A (pGCC3-mtrR D171A), hormone 6.25 µM): 146 Miller units | β-galactosidase activity, mtrC-lacZ, Mean (strain ΔmtrR + mtrR D171A (pGCC3-mtrR D171A), hormone 12.5 µM): 142 Miller units | β-galactosidase activity, mtrC-lacZ, Mean (strain ΔmtrR + mtrR D171A (pGCC3-mtrR D171A), hormone 25 µM): 168 Miller units | β-galactosidase activity, mtrC-lacZ, Mean (strain ΔmtrR + mtrR D171A (pGCC3-mtrR D171A), hormone 50 µM): 106 Miller units | mtrC-lacZ β-galactosidase activity, Mean [1]: 217 Miller units | β-galactosidase activity, Mean [1]: 91 Miller units | mtrC-lacZ β-galactosidase activity, Mean [2]: 208 Miller units | β-galactosidase activity, Mean [2]: 92 Miller units | mtrC-lacZ β-galactosidase activity, Mean [3]: 226 Miller units | β-galactosidase activity, Mean [3]: 111 Miller units | mtrC-lacZ β-galactosidase activity, Mean [4]: 231 Miller units | β-galactosidase activity, Mean [4]: 98 Miller units | β-galactosidase activity, mtrC-lacZ, Mean (strain ΔmtrR + mtrR WT (pGCC3-mtrR), hormone 6.25 µM): 84 Miller units | β-galactosidase activity, mtrC-lacZ, Mean (strain ΔmtrR + mtrR WT (pGCC3-mtrR), hormone 12.5 µM): 89 Miller units | β-galactosidase activity, mtrC-lacZ, Mean (strain ΔmtrR + mtrR WT (pGCC3-mtrR), hormone 25 µM): 113 Miller units | β-galactosidase activity, mtrC-lacZ, Mean (strain ΔmtrR + mtrR WT (pGCC3-mtrR), hormone 50 µM): 129 Miller units | mtrC-lacZ β-galactosidase activity, Mean [5]: 95 Miller units | β-galactosidase activity, Mean [5]: 19 Miller units | mtrC-lacZ β-galactosidase activity, Mean [6]: 111 Miller units | β-galactosidase activity, Mean [6]: 24 Miller units | mtrC-lacZ β-galactosidase activity, Mean [7]: 124 Miller units | β-galactosidase activity, Mean [7]: 34 Miller units | mtrC-lacZ β-galactosidase activity, Mean [8]: 160 Miller units | β-galactosidase activity, Mean [8]: 45 Miller units | mtrC-lacZ β-galactosidase activity, Mean (strain ΔmtrR, 6.25 µM hormone): 311 Miller units | β-galactosidase activity, Mean (strain ΔmtrR, 6.25 µM hormone): 126 Miller units | mtrC-lacZ β-galactosidase activity, Mean (strain ΔmtrR, 12.5 µM hormone): 285 Miller units | β-galactosidase activity, Mean (strain ΔmtrR, 12.5 µM hormone): 129 Miller units | mtrC-lacZ β-galactosidase activity, Mean (strain ΔmtrR, 25 µM hormone): 297 Miller units | β-galactosidase activity, Mean (strain ΔmtrR, 25 µM hormone): 134 Miller units | mtrC-lacZ β-galactosidase activity, Mean (strain ΔmtrR, 50 µM hormone): 286 Miller units | β-galactosidase activity, Mean (strain ΔmtrR, 50 µM hormone): 97 Miller units | β-galactosidase activity, Miller units (single replicate) (ΔmtrR + mtrR WT in trans, 6.25 µM, first data set (c15-c36)): 95 Miller units | β-galactosidase activity, Miller units (single replicate) (ΔmtrR + mtrR WT in trans, 6.25 µM, second data set (c53-c74)): 19 Miller units and 16 Miller units and 17 Miller units and 23 Miller units | β-galactosidase activity, Miller units (single replicate) (ΔmtrR + mtrR WT in trans, 12.5 µM, first data set (c15-c36)): 114 Miller units | β-galactosidase activity, Miller units (single replicate) (ΔmtrR + mtrR WT in trans, 12.5 µM, second data set (c53-c74)): 22 Miller units and 26 Miller units and 24 Miller units | β-galactosidase activity, Miller units (single replicate) (ΔmtrR + mtrR WT in trans, 25 µM, first data set (c15-c36)): 128 Miller units | β-galactosidase activity, Miller units (single replicate) (ΔmtrR + mtrR WT in trans, 25 µM, second data set (c53-c74)): 39 Miller units and 34 Miller units and 32 Miller units and 31 Miller units | β-galactosidase activity, Miller units (single replicate) (ΔmtrR + mtrR WT in trans, 50 µM, first data set (c15-c36)): 194 Miller units | β-galactosidase activity, Miller units (single replicate) (ΔmtrR + mtrR WT in trans, 50 µM, second data set (c53-c74)): 54 Miller units and 51 Miller units and 38 Miller units and 39 Miller units | β-galactosidase activity, Miller units (single replicate) (ΔmtrR, 6.25 µM, first data set (c15-c36)): 324 Miller units and 312 Miller units and 315 Miller units and 294 Miller units | β-galactosidase activity, Miller units (single replicate) (ΔmtrR, 6.25 µM, second data set (c53-c74)): 161 Miller units and 130 Miller units and 118 Miller units and 97 Miller units | β-galactosidase activity, Miller units (single replicate) (ΔmtrR, 12.5 µM, first data set (c15-c36)): 289 Miller units and 316 Miller units and 292 Miller units and 245 Miller units | β-galactosidase activity, Miller units (single replicate) (ΔmtrR, 12.5 µM, second data set (c53-c74)): 170 Miller units and 117 Miller units and 123 Miller units and 105 Miller units | β-galactosidase activity, Miller units (single replicate) (ΔmtrR, 25 µM, first data set (c15-c36)): 397 Miller units and 288 Miller units and 270 Miller units and 234 Miller units | β-galactosidase activity, Miller units (single replicate) (ΔmtrR, 25 µM, second data set (c53-c74)): 195 Miller units and 111 Miller units and 136 Miller units and 96 Miller units | β-galactosidase activity, Miller units (single replicate) (ΔmtrR, 50 µM, first data set (c15-c36)): 318 Miller units and 329 Miller units and 263 Miller units and 234 Miller units | β-galactosidase activity, Miller units (single replicate) (ΔmtrR, 50 µM, second data set (c53-c74)): 134 Miller units and 92 Miller units and 84 Miller units and 79 Miller units
